Data on 34 compounds can be found in US9040516B2, “Uracil derivative and use thereof for medical purposes” (SUMITOMO DAINIPPON PHARMA CO., LTD., priority 2011, dated 2015).

One experiment has as its target T1, human neutrophil elastase (Homo sapiens, UniProt P08246).
T1 construct: purchased Elastin Products Company
T1 sequence (P08246 30-267): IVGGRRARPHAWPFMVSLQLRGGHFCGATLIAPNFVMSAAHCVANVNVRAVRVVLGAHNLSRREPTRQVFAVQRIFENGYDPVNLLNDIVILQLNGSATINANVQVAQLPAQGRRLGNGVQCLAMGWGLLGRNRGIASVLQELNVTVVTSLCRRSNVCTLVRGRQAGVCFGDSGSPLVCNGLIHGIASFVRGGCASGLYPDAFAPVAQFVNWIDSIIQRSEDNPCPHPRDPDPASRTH
In words: Inhibitory action against human neutrophil elastase (Test Example 1; fluorogenic substrate MeOSuc-AAPV-AMC, buffer with 2M NaCl, 0.002% Brij-35). Format: biochemical. The note with it: 37° C., read-out: IC50 value (compound concentration required for 50% inhibition of human neutrophil elastase). As to the method: Assay buffer (0.4 unit/ml HNE (human neutrophil elastase, available from Elastin Products Company), 200 mM HEPES [N-(2-hydroxyethyl)piperazine-N′-(2-ethanesulfonic acid)], pH 7.5, 2M NaCl, 0.002% Brij-35) 100 μl, water for injection 40 μl and DMSO (dimethyl sulfoxide) solution of the present compound 20 μl were mixed in a 96 well plate and the mixed solutions were pre-incubated at 37° C. for five minutes. After pre-incubation, MeOSuc-AAPV-AMC (methoxysuccinyl-alanyl-alanyl-prolyl-valyl-aminomethyl cumaride (available from Sigma Aldrich Co.) solution as fluorogenic substrate (which was dissolved in 10% DMSO solution so as to adjust to 0.5 mM) 40 μl was added to the above-prepared mixed solution so as to initiate the reaction, and the mixture was incubated at 37° C. for five minutes. The fluorescence intensity of AMC was measured at an excitation wavelength of 380 nm and a fluorescence wavelength of 460 nm and the inhibition ratio was determined.
On to “2-[3,6-dimethyl-2,4-dioxo-1-(3-trifluoromethylphenyl)-1,2,3,4-tetrahydropyrimidin-5-yl]biphenyl-4-carbonitrile [Example 60]”, for which the IC50 came out at 76 nM.
On the same count and under the same terms, the value for “5-[1-(-chlorophenyl)-1H-pyrazol-5-yl]-3,6-dimethyl-1-(3-trifluoromethylphenyl)pyrimidin-2,4(1H,3H)-dione [Example 21]” was 252 nM.
Still for that read-out and setting: the value for `CCOC(=O)Cn1c(=O)c(-c2ccnn2-c2ccc(C#N)cc2)c(C)n(-c2cccc(C(F)(F)F)c2)c1=O` [Example 3] was 104 nM; that for `CCOC(=O)CCn1c(=O)c(-c2ccnn2-c2ccc(C#N)cc2)c(C)n(-c2cccc(C(F)(F)F)c2)c1=O` [Example 4, 3-[5-[1-(4-cyanophenyl)-1H-pyrazol-5-yl]-4-methyl-2,6-dioxo-3-(3-trifluoromethylphenyl)-2,3-dihydropyrimidin-1(6H)-yl]propanoic acid ethyl ester] was 131 nM; that for `CCOC(=O)CCCn1c(=O)c(-c2ccnn2-c2ccc(C#N)cc2)c(C)n(-c2cccc(C(F)(F)F)c2)c1=O` [Example 5, 4-[5-[1-(4-cyanophenyl)-1H-pyrazol-5-yl]-4-methyl-2,6-dioxo-3-(3-trifluoromethylphenyl)-2,3-dihydropyrimidin-1(6H)-yl]butanoic acid ethyl ester] was 170 nM.
Same read-out and setting: under `Cc1c(-c2ccnn2-c2ccc(C#N)cc2)c(=O)n(CC(=O)OCc2ccccc2)c(=O)n1-c1cccc(C(F)(F)F)c1` [Example 6, 2-[5-[1-(4-cyanophenyl)-1H-pyrazol-5-yl]-4-methyl-2,6-dioxo-3-(3-trifluoromethylphenyl)-2,3-dihydropyrimidin-1(6H)-yl]acetic acid benzyl ester] stands 123 nM; under `COC(Cn1c(=O)c(-c2ccnn2-c2ccc(C#N)cc2)c(C)n(-c2cccc(C(F)(F)F)c2)c1=O)OC` [Example 7, 4-[5-[3-(2,2-dimethoxyethyl)-6-methyl-2,4-dioxo-1-(3-trifluoromethylphenyl)-1,2,3,4-tetrahydropyrimidin-5-yl]-1H-pyrazol-1-yl]benzonitrile], 120 nM.
Consider `Cc1c(-c2ccnn2-c2ccc(C#N)cc2)c(=O)n(CCCCCNC(=O)OC(C)(C)C)c(=O)n1-c1cccc(C(F)(F)F)c1` [Example 8, tert-butyl 5-[5-[1-(4-cyanophenyl)-1H-pyrazol-5-yl]-4-methyl-2,6-dioxo-3-(3-trifluoromethyl)-2,3-dihydropyrimidine-1(6H)-yl]pentylcarbamate], for which the IC50 worked out at 64 nM.
On the same count and under the same terms, under `COc1ccc(Cn2c(=O)c(-c3ccnn3-c3ccc(C#N)cc3)c(C)n(-c3cccc(C(F)(F)F)c3)c2=O)cc1` [Example 9, 4-[5-[3-(4-methoxybenzyl)-6-methyl-2,4-dioxo-1-(3-trifluoromethylphenyl)-1,2,3,4-tetrahydropyrimidin-5-yl]-1H-pyrazol-1-yl]benzonitrile] stands 2950 nM.

In another experiment the target is T1, human neutrophil elastase. In words: Inhibitory action 2 against human neutrophil elastase (Test Example 2; fluorogenic substrate MeOSuc-AAPV-AMC, buffer with 400 mM NaCl, 0.2 mg/ml BSA). Format: biochemical. The note with it: 37° C., read-out: IC50 value (compound concentration required for 50% inhibition of human neutrophil elastase). As to the method:
Assay buffer (0.4 unit/ml HNE (human neutrophil elastase, available from Elastin Products Company), 200 mM HEPES [N-(2-hydroxyethyl)piperazine-N′-(2-ethanesulfonic acid)], pH 7.5, 400 mM NaCl, 0.2 mg/ml BSA (bovine serum albumin)) 100 μl, water for injection 20 μl and 1% DMSO (dimethyl sulfoxide) solution of the present compound 20 μl were mixed in a 96 well plate and the mixed solutions were pre-incubated at 37° C. for five minutes. After pre-incubation, MeOSuc-AAPV-AMC (methoxysuccinyl-alanyl-alanyl-prolyl-valyl-aminomethyl cumaride (available from Sigma Aldrich Corp.) solution as fluorogenic substrate (which was dissolved in 10% DMSO solution so as to adjust to 0.5 mM) 40 μl was added to the above-prepared mixed solution so as to initiate the reaction, and the mixture was incubated at 37° C. for five minutes. The fluorescence intensity of AMC was measured at an excitation wavelength of 380 nm and a fluorescence wavelength of 460 nm and the inhibition ratio was determined.
Turning to `Cc1c(-c2c(N3CCOCC3)cnn2-c2ccc(C#N)cc2)c(=O)n(C)c(=O)n1-c1cccc(C(F)(F)F)c1` [Example 315, 4-(5-(3,6-Dimethyl-2,4-dioxo-1-(3-trifluoromethylphenyl)-1,2,3,4-tetrahydropyrimidin-5-yl)-4-morpholino-1H-pyrazol-1-yl)benzonitrile], the IC50 amounted to 24.2 nM.
For the compound `Cc1c(-c2c(N3CCN(C(C)C)CC3)cnn2-c2ccc(C#N)cc2)c(=O)n(C)c(=O)n1-c1cccc(C(F)(F)F)c1` [Example 318], the IC50 came out at 14.9 nM.
As for `Cc1c(-c2ccnn2-c2ccc(C#N)cc2)c(=O)n([C@H](C)CS(N)(=O)=O)c(=O)n1-c1cccc(C(F)(F)F)c1` [Example 324, (R)-2-(5-(1-(4-Cyanophenyl)-1H-pyrazol-5-yl)-4-methyl-2,6-dioxo-3-(3-trifluoromethylphenyl)-2,3-dihydropyrimidin-1(6H)-yl)propane-1-sulfonamide], the IC50 was found to be 9.6 nM.
Take `Cc1c(-c2ccnn2-c2ccc(C#N)cc2F)c(=O)n(C)c(=O)n1-c1cccc(C(F)(F)F)c1` [Example 326]: the IC50 was determined as 24.3 nM.
Same read-out and setting: the value for `Cc1cc(C#N)ccc1-n1nccc1-c1c(C)n(-c2cccc(C(F)(F)F)c2)c(=O)n(C)c1=O` [Example 328] was 24.8 nM; that for `CC(=O)N1CCC(n2c(=O)c(-c3ccnn3-c3ccc(C#N)cc3)c(C)n(-c3cccc(C(F)(F)F)c3)c2=O)CC1` [Example 337] was 4.5 nM.
On the same count and under the same terms, under `CCCN1CCC(n2c(=O)c(-c3ccnn3-c3ccc(C#N)cc3)c(C)n(-c3cccc(C(F)(F)F)c3)c2=O)C1` (stereo not shown) [Example 343] stands 7.3 nM; under `Cc1c(-c2ccnn2-c2ccc(C#N)cc2)c(=O)n(C2CCN(C(=O)C(C)(C)O)CC2)c(=O)n1-c1cccc(C(F)(F)F)c1` [Example 355], 8.1 nM; under `Cc1c(-c2ccnn2-c2ccc(C#N)cc2)c(=O)n(C2CCN(C(=O)C(C)(C)N)CC2)c(=O)n1-c1cccc(C(F)(F)F)c1` [Example 357], 10.2 nM.
On to `Cc1c(-c2c(F)cnn2-c2ccc(C#N)cc2)c(=O)n(C)c(=O)n1-c1cccc(C(F)(F)F)c1` [Example 358, 4-(5-(3,6-dimethyl-2,4-dioxo-1-(3-trifluoromethylphenyl)-1,2,3,4-tetrahydropyrimidin-5-yl)-4-fluoro-1H-pyrazol-1-yl)benzonitrile], for which the IC50 stood at 29.5 nM.
The same measure, in the same setting: under `CC(=O)N1CCC(n2c(=O)c(-c3c(F)cnn3-c3ccc(C#N)cc3)c(C)n(-c3cccc(C(F)(F)F)c3)c2=O)CC1` [Example 359] stands 15.3 nM; under `Cc1c(-c2c(Cl)cnn2-c2ccc(C#N)cc2)c(=O)n(C)c(=O)n1-c1cccc(C(F)(F)F)c1` [Example 360, 4-(4-chloro-5-(3,6-dimethyl-2,4-dioxo-1-(3-trifluoromethylphenyl)-1,2,3,4-tetrahydropyrimidin-5-yl)-1H-pyrazol-1-yl)benzonitrile], 16.7 nM; under `Cc1c(-c2c(Cl)cnn2-c2ccc(C#N)cc2)c(=O)n(C(C)C(N)=O)c(=O)n1-c1cccc(C(F)(F)F)c1` (stereo not shown) [Example 361], 6.3 nM.
Same read-out and setting: under `Cc1c(-c2c(C#N)cnn2-c2ccc(C#N)cc2)c(=O)n(C)c(=O)n1-c1cccc(C(F)(F)F)c1` [Example 363, 1-(4-Cyanophenyl)-5-(3,6-dimethyl-2,4-dioxo-1-(3-trifluoromethyl)-1,2,3,4-tetrahydropyrimidin-5-yl)-1H-pyrazole-4-carbonitrile] stands 19.1 nM; under `Cc1c(-c2c(C#N)cnn2-c2ccc(C#N)cc2)c(=O)n([C@@H]2CCN(C)C2)c(=O)n1-c1cccc(C(F)(F)F)c1` [Example 367], 14 nM.
The same measure, in the same setting: the value for `Cc1c(-c2ccnn2-c2ccc(C#N)cc2)c(=O)n([C@H](C)CS(C)(=O)=O)c(=O)n1-c1cccc(C(F)(F)F)c1` [Example 375] was 12.3 nM; that for `Cc1c(-c2ccnn2-c2ccc(C#N)cc2)c(=O)n(C(C)C(=O)N(C)C)c(=O)n1-c1cccc(C(F)(F)F)c1` (stereo not shown) [Example 379] was 18.7 nM.
Consider `Cc1c(-c2ccnn2-c2ccc(C#N)cc2)c(=O)n(C(C)C(=O)N2CC(O)C2)c(=O)n1-c1cccc(C(F)(F)F)c1` (stereo not shown) [Example 383], for which the IC50 was determined as 12.8 nM.
Same read-out and setting: under `Cc1c(-c2ccnn2-c2ccc(C#N)cc2)c(=O)n(C(C)CN2CCOCC2)c(=O)n1-c1cccc(C(F)(F)F)c1` (stereo not shown) [Example 386] stands 10.1 nM; under `Cc1c(-c2ccnn2-c2ccc(C#N)cc2)c(=O)n(C(C)CN2CCC(S(C)(=O)=O)CC2)c(=O)n1-c1cccc(C(F)(F)F)c1` (stereo not shown) [Example 387], 8.9 nM; under `Cc1c(-c2ccnn2-c2ccc(C#N)cc2)c(=O)n(C(C)CN2CC(O)C2)c(=O)n1-c1cccc(C(F)(F)F)c1` (stereo not shown) [Example 390], 10.4 nM.
Still for that read-out and setting: under `Cc1c(-c2ccnn2-c2ccc(C#N)cc2)c(=O)n(C(C)CNS(C)(=O)=O)c(=O)n1-c1cccc(C(F)(F)F)c1` (stereo not shown) [Example 393] stands 26.3 nM; under `Cc1c(-c2ccnn2-c2ccc(C#N)cc2)c(=O)n(C(C)CCN2CCOCC2)c(=O)n1-c1cccc(C(F)(F)F)c1` (stereo not shown) [Example 399], 12.9 nM; under `Cc1c(-c2ccnn2-c2ccc(C#N)cc2)c(=O)n(C(C)CCNC2CC(F)(F)C2)c(=O)n1-c1cccc(C(F)(F)F)c1` (stereo not shown) [Example 406], 12.9 nM.
Consider `Cc1c(-c2ccnn2-c2ccc(C#N)cc2)c(=O)n(C(C)CCNc2ccncc2)c(=O)n1-c1cccc(C(F)(F)F)c1` (stereo not shown) [Example 408], for which the IC50 turned out to be 14.7 nM.
